Source: publication PMC8619046, “ABCB1 and ABCG2 Control Brain Accumulation and Intestinal Disposition of the Novel ROS1/TRK/ALK Inhibitor Repotrectinib, While OATP1A/1B, ABCG2, and CYP3A Limit Its Oral Availability” (Pharmaceutics, 2021)
Several values for one entry are separate records, joined by “and”; a condition that tells them apart may be missing. Identical values can stand only once. Like-named read-outs stand apart in the source and are kept apart here.

Legend:
[1] = 8-h oral plasma pharmacokinetics and tissue distribution, female wild-type, Cyp3a−/− and Cyp3aXAV mice; assay type: in vivo; settings: 10 mg/kg oral; for Tmax: median (range); for Tmax / SIC (% of dose) / Fold change AUC0–8h / Fold change SIC (% of dose) / Fold increase Cbrain / Fold increase Cliver / Fold increase ratio (brain-to-plasma) / Fold increase ratio (liver-to-plasma) / Kp at 8 h / concentration at 8 h / half-life / Cmax / AUC(0-t): 8 h; for Fold change AUC0–8h / Fold change SIC (% of dose) / Fold increase Cbrain / Fold increase Cliver / Fold increase ratio (brain-to-plasma) / Fold increase ratio (liver-to-plasma): vs wild-type; for Kp at 8 h / concentration at 8 h / half-life / Cmax / AUC(0-t): female, po; for half-life: elimination half-life; for AUC(0-t): read-out: AUC0–8h
Text: (§1) Mice with similar average ages (and body weights) were randomly allocated in experimental groups as far as possible. Mice were maintained in a temperature-controlled and specific pathogen-free environment with a 12-h light and 12-h dark cycle and they received a standard diet (Transbreed, SDS Diets, Technilab-BMI, Someren, The Netherlands) and acidified water ad libitum. […] Given the objective main readout (repotrectinib plasma and tissue concentrations as measured by LC-MS/MS), no blinding method was applied.
(§2) Repotrectinib was dissolved in dimethyl sulfoxide (DMSO) at a concentration of 50 mg/mL. This stock solution was first diluted 3-fold with ethanol/polysorbate 80 (1/1; v/v), followed by further dilution with a 10 mM hydrochloric acid solution, yielding a dosing solution of 1 mg/mL, freshly prepared on the day of experiment. Final concentrations of the solvents in the administration solution were: 2%, 2%, 2%, and 94% (all v/v) for DMSO, ethanol, polysorbate 80, and 10 mM hydrochloric acid solution, respectively.
(§3) To minimize variation in absorption upon oral administration, mice were fasted for 2–3 h before repotrectinib (10 mg/kg body weight) was administered by gavage into the stomach at 10 µL/g body weight, with a blunt-ended needle. Tail vein serial blood samples were collected at 0.125, 0.25, 0.5, 1, 2 and 4 h using heparinized capillary tubes (Sarstedt, Nümbrecht, Germany) for the 8-h experiments. For the 4- and 2-h experiments, blood samplings were performed from the tail vein with the same schedule, but terminated at 2 and 1 h, respectively. Eight, four, or two hours after oral administration, mice were deeply anesthetized with 2–3% isoflurane, followed by cardiac puncture to collect blood in Eppendorf tubes containing heparin as an anticoagulant. Brain, liver, spleen, kidney, lung, small intestine, and testis were rapidly collected after sacrificing the mice by cervical dislocation. The small intestinal contents (SIC) were separated from small intestinal tissue (SI), which was flushed and rinsed with cold saline to remove any residual feces. Brain, liver, spleen, kidney, lung, SI, SIC, and testis were homogenized with 1, 3, 1, 2, 1, 3, 2, and 1 mL of 2% BSA (w/v), respectively. Plasma fraction was isolated from blood by centrifugation at 9000× g for 6 min at 4 °C. All samples were stored at −30 °C until analysis.
(§4) A sensitive and specific liquid chromatography-tandem mass spectrometry method using protein precipitation pre-treatment was adopted to quantify the concentration of repotrectinib in DMEM medium, plasma samples and tissue homogenates.
(§5) A non-compartmental model using the PKSolver add-in program for Microsoft Excel was adopted to calculate the pharmacokinetic parameters of repotrectinib. Oral availability was assessed by the plasma area under the curve (AUC), calculated using repotrectinib plasma concentration-time curves with the linear trapezoidal rule without extrapolating the infinity. Statistical testing was performed in Graphpad Prism7 (Graphpad Software, La Jolla, CA, USA). All data are presented as geometric means ± SD. Heteroscedastic data were log-transformed before applying statistical analysis. When differences between two groups were compared, the two-sided unpaired Student’s t test was used. One-way analysis of variance (ANOVA) was applied when multiple groups were compared, and the Bonferroni post hoc correction was used to accommodate multiple testing. Differences were considered statistically significant when P < 0.05.

[2] = 8-h pilot oral plasma pharmacokinetics and tissue distribution, female wild-type, Abcb1a/1b;Abcg2−/− and Oatp1a/1b−/− mice; assay type: in vivo; settings: >99% FVB background, mouse, plasma; female wild-type and Abcb1a/1b;Abcg2−/− mice, 10 mg/kg oral, 8-h pilot; read-out: time of peak plasma concentrations after dosing (converted)
Text: as §1, §2, §3, §4, §5

[3] = FVB, mouse, plasma, 10 mg/kg, female Cyp3aXAV mice
[4] = FVB, mouse, plasma, 10 mg/kg, female Cyp3a−/− mice
[5] = FVB, mouse, plasma, 10 mg/kg, female wild-type mice

In the case of `C[C@H]1CNC(=O)c2cnn3ccc(nc23)N[C@H](C)c2cc(F)ccc2O1` [repotrectinib], the Tmax ([1]; FVB, mouse, plasma, female wild-type mice, read-out: Tmax) is reported as 0.5 h, the “plasma AUC0–8h, fold decrease” value ([1]; female Cyp3aXAV mice compared to Cyp3a−/− mice) is reported as 2.0 fold and the “SIC (% of dose)” value ([1]; female Cyp3aXAV mice) is reported as 1.68 ± 0.63 % of dose. The “Fold change AUC0–8h” value ([1]; female Cyp3aXAV mice) was 1.16, the “Fold change SIC (% of dose)” value ([1]; female Cyp3aXAV mice) was 0.81 and the “Fold increase Cbrain” value ([1]; female Cyp3aXAV mice) was 1.57. For the same compound, the “Fold increase Cliver” value ([1]; female Cyp3aXAV mice) was 1.13, the “Fold increase ratio (brain-to-plasma)” value ([1]; female Cyp3aXAV mice) was 1.54 and the “Fold increase ratio (liver-to-plasma)” value ([1]; female Cyp3aXAV mice) was 1.32. The “SIC (% of dose)” value ([1]; female Cyp3a−/− mice) was 5.11 ± 2.83 % of dose, the “Fold change SIC (% of dose)” value ([1]; female Cyp3a−/− mice) was 2.46 and the “Fold increase Cbrain” value ([1]; female Cyp3a−/− mice) was 4.16. For the same compound, the “Fold increase Cliver” value ([1]; female Cyp3a−/− mice) was 4.11, the “Fold increase ratio (brain-to-plasma)” value ([1]; female Cyp3a−/− mice) was 0.85 and the “Fold increase ratio (liver-to-plasma)” value ([1]; female Cyp3a−/− mice) was 0.90. The “Fold change AUC0–8h” value ([1]; female Cyp3a−/− mice, 10 mg/kg) was 2.3 and 2.31, the “SIC (% of dose)” value ([1]; female wild-type mice) was 2.08 ± 1.35 % of dose and the “Fold change AUC0–8h” value ([1]; female wild-type mice) was 1.00. For the same compound, the “Fold change SIC (% of dose)” value ([1]; female wild-type mice) was 1.00, the “Fold increase Cbrain” value ([1]; female wild-type mice) was 1.00 and the “Fold increase Cliver” value ([1]; female wild-type mice) was 1.00. For the same compound, the “Fold increase ratio (brain-to-plasma)” value ([1]; female wild-type mice) was 1.00, the “Fold increase ratio (liver-to-plasma)” value ([1]; female wild-type mice) was 1.00 and the Kp at 8 h ([1]; Cyp3aXAV (>99% FVB background), mouse, brain/plasma, 10 mg/kg, female Cyp3aXAV mice, read-out: Brain-to-plasma ratio) was 0.4 ± 0.09. It also gave a concentration at 8 h ([1]; Cyp3aXAV (>99% FVB background), mouse, liver, 10 mg/kg, female Cyp3aXAV mice, read-out: Cliver) of 1380 ± 440 ng/mL, a Kp at 8 h ([1]; Cyp3a−/− (>99% FVB background), mouse, brain/plasma, 10 mg/kg, female Cyp3a−/− mice, read-out: Brain-to-plasma ratio) of 0.22 ± 0.08 and a concentration at 8 h ([1]; Cyp3a−/− (>99% FVB background), mouse, liver, 10 mg/kg, female Cyp3a−/− mice, read-out: Cliver) of 5020 ± 1920 ng/mL. It also gave a concentration at 8 h ([1]; FVB, mouse, brain, 10 mg/kg, female Cyp3aXAV mice, read-out: Cbrain) of 80.2 ± 35.3 ng/g, a concentration at 8 h ([1]; FVB, mouse, brain, 10 mg/kg, female Cyp3a−/− mice, read-out: Cbrain) of 213 ± 53.7 ng/g and a concentration at 8 h ([1]; FVB, mouse, brain, 10 mg/kg, female wild-type mice, read-out: Cbrain) of 51.2 ± 17.8 ng/g. It also gave a Kp at 8 h ([1]; FVB, mouse, liver, 10 mg/kg, female Cyp3aXAV mice, read-out: Liver-to-plasma ratio) of 7.1 ± 2.11, a Kp at 8 h ([1]; FVB, mouse, liver, 10 mg/kg, female Cyp3a−/− mice, read-out: Liver-to-plasma ratio) of 4.81 ± 0.76 and a Kp at 8 h ([1]; FVB, mouse, liver, 10 mg/kg, female wild-type mice, read-out: Liver-to-plasma ratio) of 5.36 ± 0.54. It also gave a half-life [1, 3] of 1.6 ± 0.2 h, a half-life [1, 4] of 2.5 ± 0.9 h and a half-life [1, 5] of 1.6 ± 0.4 h. It also gave a Cmax [1, 3] of 5560 ± 610 ng/mL, an AUC(0-t) [1, 3] of 18900 ± 3650 ng·h/mL and a Cmax [1, 4] of 8280 ± 930 ng/mL. It also gave an AUC(0-t) [1, 4] of 37600 ± 2830 ng·h/mL, a Cmax [1, 5] of 4800 ± 1780 ng/mL and an AUC(0-t) [1, 5] of 16300 ± 6350 ng·h/mL. For the same compound, the Kp at 8 h ([1]; wild-type (>99% FVB background), mouse, brain/plasma, 10 mg/kg, female wild-type mice, read-out: Brain-to-plasma ratio) was 0.26 ± 0.12, the concentration at 8 h ([1]; wild-type (>99% FVB background), mouse, liver, 10 mg/kg, female wild-type mice, read-out: Cliver) was 1220 ± 650 ng/mL and the Tmax ([1]; female Cyp3aXAV mice) was 0.5 (0.25–0.5) h. For the same compound, the Tmax ([1]; female Cyp3a−/− mice) was 0.5 (0.125–0.5) h and the Tmax [2] was 0.5 h.
